For one data set, the system named is MEFs. The data set is described as follows: CellTiter-Glo cytotoxicity assay. It is filed as cell-based, mouse. As to the method: Cell viability, as determined by CellTiter-Glo, is shown as luminescence; values are averages of triplicate determinations ±S.E.M. of a representative experiment repeated at least two times. […] Data represent single measurements of a representative experiment repeated at least two times.
(§1) The next day, compounds were added (ten concentrations), and the plates were incubated for 24 or 48 hrs at 37° C./5% CO2, and viability was quantified by measuring cellular ATP using luminescence (CellTiter-Glo®, Promega, Madison, Wis., USA) or viability based upon amount of DNA (CyQUANT®, ThermoFisher).
(ATP-based viability assays read luminescence as a measure of living cells.)

A short description of data set [1]: CyQUANT cell proliferation/viability assay. It counts as cell-based. As to the method:
as §1

In the next data set the test system is mouse brain mitochondria. The data set is described as follows: Membrane potential in isolated mouse brain mitochondria (uncoupling). The settings on record: 50 and 100 μM LRE1, 50 μM KH7.
A further data set has as its target sAC (Homo sapiens (Human), UniProt Q96PN6). Briefly: ELISA-based Correlate-EIA Direct cAMP Assay of in vitro sAC activity.
Data set [2] concerns the target T1, human sACt protein (Homo sapiens (Human), UniProt Q96PN6). Briefly: Primary high-throughput screen for sAC inhibitors (RF-MSS cyclase assay). It counts as biochemical. The settings on record: screened at 10 μM; 1 mM ATP, 5 mM MgCl2, 5 mM CaCl2, 40 mM NaHCO3.
Method: This instrument also includes a Zymark Twister® robotic arm that handles microtiter plates and a purification SPE system. 35 μl of sample was aspirated from each well of a 384-well reaction microtiter plate and then injected onto a graphitized carbon SPE column extraction cartridge, washing with aqueous alkaline buffer and eluting it in an alkaline/organic solvent, onto the electrospray-MS, where the mass spectra of each sample was collected. The RapidFire sipper was washed between sample injections using organic (25% acetonitrile, 25% acetone in 5 mM ammonium acetate, pH 10) and aqueous (5 mM ammonium acetate, pH 10) solvents. RapidFire mass spectrometry screening data were processed and analyzed using Agilent MassHunter Software.
The primary screen was performed in polystyrene 384-well microplates (Greiner Bio One International AG). […] The reagents were dispensed using a liquid handling instrument Multidrop™ Combi Assay buffer (50 mM Tris pH 7.5, 5 mM CaCl2, 5 mM MgCl2, 40 mM NaHCO3, 2 mM DTT) was added first on the 384-well plate (Greiner Bio-One) followed by the compounds. The small molecule compounds were dispensed with a nanohead containing a 384-well array of Norgren Kloehn nanosyringes, and each plate was bar-coded. The human sACt protein was added next followed by the remainder of the assay buffer. […]
The target of data set [3] is T1, human sACt protein. The data set is described as follows: RF-MSS in vitro cyclase assay, concentration-response.
Method: To avoid assay dependent artifacts, reproducibility and concentration-dependency were simultaneously assessed in the RF-MSS cyclase assay as well as in an independent colorimetric competitive enzyme immunoassay (i.e., ELISA-based Correlate-EIA Direct cAMP Assay). […] This instrument also includes a Zymark Twister® robotic arm that handles microtiter plates and a purification SPE system. 35 μl of sample was aspirated from each well of a 384-well reaction microtiter plate and then injected onto a graphitized carbon SPE column extraction cartridge, washing with aqueous alkaline buffer and eluting it in an alkaline/organic solvent, onto the electrospray-MS, where the mass spectra of each sample was collected. The RapidFire sipper was washed between sample injections using organic (25% acetonitrile, 25% acetone in 5 mM ammonium acetate, pH 10) and aqueous (5 mM ammonium acetate, pH 10) solvents. RapidFire mass spectrometry screening data were processed and analyzed using Agilent MassHunter Software.

Two compounds from US10981899B2, “Inhibitors of soluble adenylyl cyclase” (CORNELL UNIVERSITY, priority 2016, dated 2021) can be followed below.

T1 sequence (Q96PN6 1-469): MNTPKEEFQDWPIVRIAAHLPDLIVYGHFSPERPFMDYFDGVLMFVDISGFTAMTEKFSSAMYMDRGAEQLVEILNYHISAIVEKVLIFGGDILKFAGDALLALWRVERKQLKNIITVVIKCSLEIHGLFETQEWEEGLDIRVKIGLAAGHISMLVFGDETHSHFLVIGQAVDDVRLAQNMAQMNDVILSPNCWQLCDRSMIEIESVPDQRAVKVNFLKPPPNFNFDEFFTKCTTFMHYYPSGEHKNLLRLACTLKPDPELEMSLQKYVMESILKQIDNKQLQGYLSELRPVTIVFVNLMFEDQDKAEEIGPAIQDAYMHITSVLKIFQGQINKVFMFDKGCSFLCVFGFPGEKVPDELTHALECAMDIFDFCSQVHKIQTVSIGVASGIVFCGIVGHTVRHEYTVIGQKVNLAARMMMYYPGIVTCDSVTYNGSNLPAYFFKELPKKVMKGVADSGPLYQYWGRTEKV
Sequence of sAC (Q96PN6 1-469): as above

`CC(Sc1nc2ccccc2[nH]1)C(=O)N/N=C/c1cc(Br)ccc1O` (centres unmarked) [KH7]: the “toxicity (CellTiter-Glo)” value in the data set with MEFs (2 days in culture, WT MEFs, KH7 at low μM, LRE1 up to 50 μM) is on record as “toxic”; in the data set on MEFs (single day in culture), “neither compound exhibited significant toxicity”. Moreover, the “toxicity (CyQUANT)” value was “toxic at low μM concentrations” in data set [1] (second day) and “neither LRE1 nor KH7 were toxic” in data set [1] (single day). For the same compound, in the data set on mouse brain mitochondria, the mitochondrial uncoupling result is “uncoupling effect”.
For `Cc1cccc(-n2nc(S)sc2=S)c1` [RU-0207328], the IC50 against sAC and on human sACt protein [3] was more than 20 µM each time. In addition, the “Primary Screen (% NPI)” value at human sACt protein [2] is recorded as 58.1 % NPI.

For orientation: IC50 means the midpoint of a concentration-inhibition curve. Read a low IC50 as greater potency in that assay.
